Columns and labels:
Assay in all cases: Kinase Hotspot radiolabel assay
Type in all cases: biochemical
Conditions in all cases: read-out: % Residual Activity
VRK2 = target: T1, VRK2 (Homo sapiens, UniProt Q86Y07)
T1 construct: purchased Reaction Biology Corporation (Kinase HotSpot)
Procedure: (§1) Kinase assay. The ADP Glo^TM kinase assay (Promega, Madison, WI, USA) was used to assess the inhibition by CDDD11-8 of CDKs 1, 2, 4, 6, 7, and 9, as well as the mutant isoforms of FLT3. The assays were performed in accord with the manufacturer’s protocol (Promega) as described previously. Briefly, serial three-fold dilutions of CDDD11-8 were prepared in 100% DMSO from a 2 mM stock solution, followed by 1:40 dilution into Milli-Q water. Subsequently, 1 µL of each sample was incubated with 4 µL of kinase mixture containing a particular CDK enzyme and its substrate, standard kinase buffer [3 mM MgCl2, 50 mM HEPES-NaOH pH 7.5, 3 mM MnCl2, 3 µM Na-orthovanadate, 1 mM dithiothreitol (DTT)], kinase dilution buffer (containing 0.25 mg/mL PEG20,000, 50 mM HEPES-NaOH pH 7.5, 1 mM DTT), and ATP at 37 °C for 30 to 40 min. The final reaction mixture contained 0.5% DMSO in all samples, and the applied kinase concentrations were 1, 1, 10, 40, 20, and 50 nM for CDK1, 2, 4, 6, 7, and 9, respectively. The reaction was stopped by adding ADP-Glo reagent and the mixture was incubated further in the dark at room temperature for 40 min. As a final step, kinase detection reagent was added to each mixture and incubated at room temperature for 30 to 60 min. Luminescence was read using an EnVision® multilabel plate reader (PerkinElmer, Beaconsfield, UK), and half-maximum inhibitory concentrations (IC50) were calculated using a non-linear regression model with a variable slope, plotting log (inhibitor concentration) vs. response using the following formula: Ar%=Bottom+Top−Bottom/1+Inhibitor Concentration/IC50^HillSlope where the relative activity Ar (%) is the signal relative to the controls, IC50 is the half maximum concentration, Hillslope is the steepness of the dose-response curve, Top and Bottom are plateaus reflecting the maximum and minimum in responses on the Y-axis (GraphPad Prism version 7, San Diego, CA, USA). Ki values were calculated from the IC50 using the Cheng−Prusoff equation [32]. Extensive specificity assessment was carried out by Reaction Biology Corporation (Malvern, PA, USA) with 369 kinases using 1 µM CDDD11-8 concentration in a Kinase Hotspot radiolabel assay (for experimental details, please see (Reaction Biology https://www.reactionbiology.com/). Subsequently, Ki values were determined for kinases with greater than 90% inhibition.

IRAK1 = target: T2, IRAK1 (Homo sapiens, UniProt P51617)
T2 construct: purchased Reaction Biology Corporation (Kinase HotSpot)
Procedure: as §1

MUSK = target: T3, MUSK (Homo sapiens, UniProt O15146)
T3 construct: purchased Reaction Biology Corporation (Kinase HotSpot)
Procedure: as §1

CTK/MATK = target: T4, CTK/MATK (Homo sapiens, UniProt P42679)
T4 construct: purchased Reaction Biology Corporation (Kinase HotSpot)
T4 sequence (P42679 whole entry): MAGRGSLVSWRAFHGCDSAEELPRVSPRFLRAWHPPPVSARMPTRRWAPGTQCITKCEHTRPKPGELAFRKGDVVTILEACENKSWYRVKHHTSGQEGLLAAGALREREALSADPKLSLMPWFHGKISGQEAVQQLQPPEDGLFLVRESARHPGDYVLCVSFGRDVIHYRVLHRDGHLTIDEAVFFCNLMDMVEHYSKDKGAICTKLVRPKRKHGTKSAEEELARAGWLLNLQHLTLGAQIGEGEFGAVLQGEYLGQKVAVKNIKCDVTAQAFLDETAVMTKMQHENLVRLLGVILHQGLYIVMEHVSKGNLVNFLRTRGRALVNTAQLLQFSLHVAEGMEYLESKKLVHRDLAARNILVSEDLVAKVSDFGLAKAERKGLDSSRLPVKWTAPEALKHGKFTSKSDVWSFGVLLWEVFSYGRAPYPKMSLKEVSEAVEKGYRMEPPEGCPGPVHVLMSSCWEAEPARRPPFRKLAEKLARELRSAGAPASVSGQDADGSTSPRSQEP
Procedure: as §1

ULK3 = target: T5, ULK3 (Homo sapiens, UniProt Q6PHR2)
T5 construct: purchased Reaction Biology Corporation (Kinase HotSpot)
Procedure: as §1

IKKa/CHUK = target: T6, IKKa/CHUK (Homo sapiens, UniProt O15111)
T6 construct: purchased Reaction Biology Corporation (Kinase HotSpot)
Procedure: as §1

MSK2/RPS6KA4 = target: T7, MSK2/RPS6KA4 (Homo sapiens, UniProt O75676)
T7 construct: purchased Reaction Biology Corporation (Kinase HotSpot)
Procedure: as §1

DYRK1/DYRK1A = target: T8, DYRK1/DYRK1A (Homo sapiens, UniProt Q13627)
T8 construct: purchased Reaction Biology Corporation (Kinase HotSpot)
Procedure: as §1

CDK4/cyclin D1 = target: T9, CDK4/cyclin D1 (Homo sapiens, UniProt P11802)
T9 construct: purchased Reaction Biology Corporation (Kinase HotSpot)
Procedure: as §1

RSK4 = target: T10, RSK4 (Homo sapiens, UniProt Q9UK32)
T10 construct: purchased Reaction Biology Corporation (Kinase HotSpot)
T10 sequence (Q9UK32 whole entry): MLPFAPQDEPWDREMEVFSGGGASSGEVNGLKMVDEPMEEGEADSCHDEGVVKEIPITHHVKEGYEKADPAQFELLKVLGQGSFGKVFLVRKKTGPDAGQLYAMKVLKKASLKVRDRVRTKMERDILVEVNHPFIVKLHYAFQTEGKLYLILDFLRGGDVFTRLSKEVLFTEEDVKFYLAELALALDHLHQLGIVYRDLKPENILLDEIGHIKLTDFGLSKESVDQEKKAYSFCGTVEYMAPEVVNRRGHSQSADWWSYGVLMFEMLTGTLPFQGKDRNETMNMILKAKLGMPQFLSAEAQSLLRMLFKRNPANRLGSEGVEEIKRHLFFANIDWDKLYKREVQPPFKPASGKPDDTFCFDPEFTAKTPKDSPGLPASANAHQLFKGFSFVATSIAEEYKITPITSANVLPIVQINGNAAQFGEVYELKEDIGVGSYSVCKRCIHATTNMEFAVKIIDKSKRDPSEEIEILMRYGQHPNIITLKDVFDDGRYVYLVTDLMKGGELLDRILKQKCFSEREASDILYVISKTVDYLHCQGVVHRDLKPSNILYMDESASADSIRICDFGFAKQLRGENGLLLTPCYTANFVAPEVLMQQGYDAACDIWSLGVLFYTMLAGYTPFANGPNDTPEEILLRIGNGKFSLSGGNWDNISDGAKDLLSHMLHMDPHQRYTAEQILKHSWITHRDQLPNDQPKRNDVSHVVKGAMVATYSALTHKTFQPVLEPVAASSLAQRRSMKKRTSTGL
Procedure: as §1

MST1/STK4 = target: T11, MST1/STK4 (Homo sapiens, UniProt Q13043)
T11 construct: purchased Reaction Biology Corporation (Kinase HotSpot)
Procedure: as §1

LATS2 = target: T12, LATS2 (Homo sapiens, UniProt Q9NRM7)
T12 construct: purchased Reaction Biology Corporation (Kinase HotSpot)
Procedure: as §1

YES/YES1 = target: T13, YES/YES1 (Homo sapiens, UniProt P07947)
T13 construct: purchased Reaction Biology Corporation (Kinase HotSpot)
Procedure: as §1

LKB1 = target: T14, LKB1 (Homo sapiens, UniProt Q15831)
T14 construct: purchased Reaction Biology Corporation (Kinase HotSpot)
Procedure: as §1

WEE1 = target: T15, WEE1 (Homo sapiens, UniProt P30291)
T15 construct: purchased Reaction Biology Corporation (Kinase HotSpot)
Procedure: as §1

CDC7/DBF4 = target: T16, CDC7/DBF4 (Homo sapiens, UniProt O00311)
T16 construct: purchased Reaction Biology Corporation (Kinase HotSpot)
Procedure: as §1

MEKK3 = target: T17, MEKK3 (Homo sapiens, UniProt Q99759)
T17 construct: purchased Reaction Biology Corporation (Kinase HotSpot)
Procedure: as §1

DMPK = target: T18, DMPK (Homo sapiens, UniProt Q09013)
T18 construct: purchased Reaction Biology Corporation (Kinase HotSpot)
Procedure: as §1

c-Src = target: T19, c-Src (Homo sapiens, UniProt P12931)
T19 construct: purchased Reaction Biology Corporation (Kinase HotSpot)
Procedure: as §1

CLK2 = target: T20, CLK2 (Homo sapiens, UniProt P49760)
T20 construct: purchased Reaction Biology Corporation (Kinase HotSpot)
Procedure: as §1

TAOK3/JIK = target: T21, TAOK3/JIK (Homo sapiens, UniProt Q9H2K8)
T21 construct: purchased Reaction Biology Corporation (Kinase HotSpot)
Procedure: as §1

MARK3 = target: T22, MARK3 (Homo sapiens, UniProt P27448)
T22 construct: purchased Reaction Biology Corporation (Kinase HotSpot)
Procedure: as §1

PDGFRa = target: T23, PDGFRa (Homo sapiens, UniProt P16234)
T23 construct: purchased Reaction Biology Corporation (Kinase HotSpot)
Procedure: as §1

MSK1/RPS6KA5 = target: T24, MSK1/RPS6KA5 (Homo sapiens, UniProt O75582)
T24 construct: purchased Reaction Biology Corporation (Kinase HotSpot)
Procedure: as §1

PIM3 = target: T25, PIM3 (Homo sapiens, UniProt Q86V86)
T25 construct: purchased Reaction Biology Corporation (Kinase HotSpot)
Procedure: as §1

FRK/PTK5 = target: T26, FRK/PTK5 (Homo sapiens, UniProt P42685)
T26 construct: purchased Reaction Biology Corporation (Kinase HotSpot)
T26 sequence (P42685 whole entry): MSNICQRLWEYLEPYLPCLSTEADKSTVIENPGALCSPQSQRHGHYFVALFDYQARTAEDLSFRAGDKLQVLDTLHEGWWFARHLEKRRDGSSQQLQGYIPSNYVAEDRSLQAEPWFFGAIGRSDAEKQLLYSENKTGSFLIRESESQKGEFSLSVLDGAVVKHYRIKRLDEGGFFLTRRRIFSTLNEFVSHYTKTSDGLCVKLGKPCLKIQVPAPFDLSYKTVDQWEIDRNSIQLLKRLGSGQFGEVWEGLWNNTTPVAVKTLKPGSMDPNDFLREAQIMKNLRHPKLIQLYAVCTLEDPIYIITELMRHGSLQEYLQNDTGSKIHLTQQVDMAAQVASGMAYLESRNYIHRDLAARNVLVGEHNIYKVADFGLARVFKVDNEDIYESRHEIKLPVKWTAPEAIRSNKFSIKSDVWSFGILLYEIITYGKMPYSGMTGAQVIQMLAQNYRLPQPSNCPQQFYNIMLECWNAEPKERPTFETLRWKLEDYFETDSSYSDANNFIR
Procedure: as §1

BRK = target: T27, BRK (Homo sapiens, UniProt Q13882)
T27 construct: purchased Reaction Biology Corporation (Kinase HotSpot)
T27 sequence (Q13882 whole entry): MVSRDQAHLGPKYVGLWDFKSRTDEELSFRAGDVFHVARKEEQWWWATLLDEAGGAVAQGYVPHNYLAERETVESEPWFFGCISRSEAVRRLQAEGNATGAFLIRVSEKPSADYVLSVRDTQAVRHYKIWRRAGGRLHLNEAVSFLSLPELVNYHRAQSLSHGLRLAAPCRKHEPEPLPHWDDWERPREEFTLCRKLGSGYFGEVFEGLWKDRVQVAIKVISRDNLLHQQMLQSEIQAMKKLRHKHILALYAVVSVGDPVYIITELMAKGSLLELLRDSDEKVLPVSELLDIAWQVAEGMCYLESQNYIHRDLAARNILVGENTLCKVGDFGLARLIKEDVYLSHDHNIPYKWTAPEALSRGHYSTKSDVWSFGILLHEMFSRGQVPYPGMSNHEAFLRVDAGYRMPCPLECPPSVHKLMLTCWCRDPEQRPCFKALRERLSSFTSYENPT
Procedure: as §1

STK21/CIT = target: T28, STK21/CIT (Homo sapiens, UniProt O14578)
T28 construct: purchased Reaction Biology Corporation (Kinase HotSpot)
T28 sequence (O14578 whole entry): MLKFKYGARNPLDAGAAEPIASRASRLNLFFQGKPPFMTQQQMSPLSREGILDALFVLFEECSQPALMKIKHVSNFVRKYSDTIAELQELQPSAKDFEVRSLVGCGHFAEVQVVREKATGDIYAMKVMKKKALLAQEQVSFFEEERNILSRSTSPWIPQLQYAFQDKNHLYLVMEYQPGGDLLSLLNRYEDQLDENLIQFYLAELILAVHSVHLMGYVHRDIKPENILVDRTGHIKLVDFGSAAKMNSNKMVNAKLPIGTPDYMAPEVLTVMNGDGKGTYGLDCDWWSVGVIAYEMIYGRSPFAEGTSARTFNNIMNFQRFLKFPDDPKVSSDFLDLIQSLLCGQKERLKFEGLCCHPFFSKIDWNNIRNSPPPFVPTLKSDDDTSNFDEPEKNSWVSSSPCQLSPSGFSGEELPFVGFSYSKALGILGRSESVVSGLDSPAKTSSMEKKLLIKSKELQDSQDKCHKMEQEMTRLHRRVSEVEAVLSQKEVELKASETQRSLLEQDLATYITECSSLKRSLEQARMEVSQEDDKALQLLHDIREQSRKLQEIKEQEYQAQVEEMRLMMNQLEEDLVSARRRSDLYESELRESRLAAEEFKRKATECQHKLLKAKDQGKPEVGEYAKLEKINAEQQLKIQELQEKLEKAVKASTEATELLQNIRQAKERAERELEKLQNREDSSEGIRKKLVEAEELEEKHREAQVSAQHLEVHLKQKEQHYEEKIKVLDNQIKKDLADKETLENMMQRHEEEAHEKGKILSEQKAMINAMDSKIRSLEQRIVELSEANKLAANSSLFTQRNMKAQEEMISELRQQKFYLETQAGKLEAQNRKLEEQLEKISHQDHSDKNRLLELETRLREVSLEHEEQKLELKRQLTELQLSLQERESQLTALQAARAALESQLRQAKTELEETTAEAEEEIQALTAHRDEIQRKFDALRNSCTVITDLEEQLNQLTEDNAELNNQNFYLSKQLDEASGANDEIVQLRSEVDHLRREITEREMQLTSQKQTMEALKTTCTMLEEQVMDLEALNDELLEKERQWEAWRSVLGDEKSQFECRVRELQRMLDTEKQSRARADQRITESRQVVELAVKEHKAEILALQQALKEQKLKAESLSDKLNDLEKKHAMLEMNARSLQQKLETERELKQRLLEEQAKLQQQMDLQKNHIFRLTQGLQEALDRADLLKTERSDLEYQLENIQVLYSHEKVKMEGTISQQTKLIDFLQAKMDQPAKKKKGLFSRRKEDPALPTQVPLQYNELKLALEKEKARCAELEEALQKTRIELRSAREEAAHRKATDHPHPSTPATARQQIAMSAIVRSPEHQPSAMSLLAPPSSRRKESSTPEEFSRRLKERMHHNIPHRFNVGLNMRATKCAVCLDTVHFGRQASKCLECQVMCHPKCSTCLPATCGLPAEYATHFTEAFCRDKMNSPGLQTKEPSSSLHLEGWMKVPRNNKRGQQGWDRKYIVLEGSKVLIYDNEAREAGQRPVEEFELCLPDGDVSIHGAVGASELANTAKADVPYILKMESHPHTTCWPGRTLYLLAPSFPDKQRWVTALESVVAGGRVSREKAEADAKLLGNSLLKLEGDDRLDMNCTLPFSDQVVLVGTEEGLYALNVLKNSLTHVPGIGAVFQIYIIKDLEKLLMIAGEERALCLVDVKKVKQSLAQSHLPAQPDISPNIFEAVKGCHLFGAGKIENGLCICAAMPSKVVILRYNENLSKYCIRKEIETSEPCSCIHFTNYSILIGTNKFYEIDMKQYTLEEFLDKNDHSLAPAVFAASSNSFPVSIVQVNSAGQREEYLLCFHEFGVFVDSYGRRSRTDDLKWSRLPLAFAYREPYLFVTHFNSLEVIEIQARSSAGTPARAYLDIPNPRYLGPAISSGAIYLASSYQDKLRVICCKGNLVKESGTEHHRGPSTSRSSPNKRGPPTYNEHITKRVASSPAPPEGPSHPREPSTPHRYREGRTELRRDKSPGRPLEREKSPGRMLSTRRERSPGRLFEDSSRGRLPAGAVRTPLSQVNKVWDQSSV
Procedure: as §1

JNK3 = target: T29, JNK3 (Homo sapiens, UniProt P53779)
T29 construct: purchased Reaction Biology Corporation (Kinase HotSpot)
Procedure: as §1

GRK3 = target: T30, GRK3 (Homo sapiens, UniProt P35626)
T30 construct: purchased Reaction Biology Corporation (Kinase HotSpot)
Procedure: as §1

T1 sequence (Q86Y07 whole entry): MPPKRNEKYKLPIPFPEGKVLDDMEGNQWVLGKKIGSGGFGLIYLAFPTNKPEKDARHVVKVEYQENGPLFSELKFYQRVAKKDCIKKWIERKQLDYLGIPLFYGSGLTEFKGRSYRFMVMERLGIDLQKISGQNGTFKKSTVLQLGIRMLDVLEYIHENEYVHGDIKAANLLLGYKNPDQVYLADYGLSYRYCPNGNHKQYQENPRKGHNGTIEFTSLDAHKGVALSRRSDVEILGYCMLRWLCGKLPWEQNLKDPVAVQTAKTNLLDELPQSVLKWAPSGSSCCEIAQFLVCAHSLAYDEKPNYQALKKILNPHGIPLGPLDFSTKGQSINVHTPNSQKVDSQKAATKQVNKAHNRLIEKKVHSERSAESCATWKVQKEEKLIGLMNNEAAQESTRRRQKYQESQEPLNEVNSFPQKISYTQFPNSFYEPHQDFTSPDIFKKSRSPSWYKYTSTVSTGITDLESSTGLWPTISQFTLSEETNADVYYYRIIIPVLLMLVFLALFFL

For `Cc1cnc(N[C@H]2CC[C@H](N)CC2)nc1-c1cnc2ccc(-c3ccccc3)cn12` [CDDD11-8], the remaining activity at 1 µM (VRK2) was 35.7%, the remaining activity at 1 µM (IRAK1) was 91.9% and the remaining activity at 1 µM (MUSK) was 72.7%. For the same molecule, the remaining activity at 1 µM (CTK/MATK) was 123%, the remaining activity at 1 µM (ULK3) was 82.8% and the remaining activity at 1 µM (IKKa/CHUK) was 98.5%. The remaining activity at 1 µM (MSK2/RPS6KA4) was 97.4%, the remaining activity at 1 µM (DYRK1/DYRK1A) was 63.9% and the remaining activity at 1 µM (CDK4/cyclin D1) was 89.3%. It also gave a remaining activity at 1 µM (RSK4) of 43.4%, a remaining activity at 1 µM (MST1/STK4) of 8.89% and a remaining activity at 1 µM (LATS2) of 30.2%. For the same molecule, the remaining activity at 1 µM (YES/YES1) was 70%, the remaining activity at 1 µM (LKB1) was 102% and the remaining activity at 1 µM (WEE1) was 94.3%. It also gave a remaining activity at 1 µM (CDC7/DBF4) of 109%, a remaining activity at 1 µM (MEKK3) of 109% and a remaining activity at 1 µM (DMPK) of 96.2%. It also gave a remaining activity at 1 µM (c-Src) of 49.5%, a remaining activity at 1 µM (CLK2) of 47% and a remaining activity at 1 µM (TAOK3/JIK) of 48.6%. The remaining activity at 1 µM (MARK3) was 37%, the remaining activity at 1 µM (PDGFRa) was 49.3% and the remaining activity at 1 µM (MSK1/RPS6KA5) was 61.6%. The remaining activity at 1 µM (PIM3) was 72.6%, the remaining activity at 1 µM (FRK/PTK5) was 97.1% and the remaining activity at 1 µM (BRK) was 87.4%. The remaining activity at 1 µM (STK21/CIT) was 85.9%, the remaining activity at 1 µM (JNK3) was 81.3% and the remaining activity at 1 µM (GRK3) was 91.9%.
